{
  "source": "patent US10066004B2",
  "about": "(ARIZONA CANCER THERAPEUTICS, LLC, priority 2010, dated 2018)",
  "key": {"MDA-MB-468 cells [1]": {"tested_on": "MDA-MB-468 cells", "experiment": "MTT viability, EJ1 in combination with pathway inhibitors or ROS scavenger", "type": "cell-based", "settings": "MDA-MB-468, 20 μmol/l EJ1 plus inhibitor", "procedure": "(a) MDA-MB-468 cells were treated with either 20 μmol/l CP (A-D) or 20 μmol/l EJ1 (E-H) for 0 minutes (A, E), 15 minutes (B, F), 60 minutes (C, G), or 16 hours (D, H). Arrows indicate membrane blebs and arrowheads indicate intracellular vacuoles. (b) BxPC3 cells were serum starved overnight, then treated with 20 μmol/l EJ1 and 50 ng/ml Texas-Red-labeled EGF, and imaged for 30 minutes with an Olympus IX71 deconvolution microscope. Panels A-F are bright field images, D′-F′ are red channel images (Texas-Red-labeled EGF). Arrowheads indicate locations of EGF accumulation on membrane protrusions. (c) Diagram depicts Ca^2+/CaM-regulated signaling pathway, and inhibitors acting at different targets are indicated. (d) MDA-MB-468 cells were pretreated with 50 μmol/l W-13 (D-F), 10 μmol/l ML-7 (G-I), or 10 μmol/l Y-27632 (J-L) in complete medium at 37° C. for 30 minutes and then treated with vehicle, 20 μmol/l CP, or 20 μmol/l EJ1 in combination with W-13, ML-7, or Y-27632 in complete medium at 37° C. for 15 minutes. Images represent the bright field images. Arrows indicate membrane blebbing. (e) MDA-MB-468 cells were untreated (UNTX) or treated with water (Vehicle), 20 μmol/l EJ1, 10 μmol/l Y-27632, or 10 μmol/l ML-7 alone or EJ1 in combination with Y-27632 or ML-7, and the viability was assessed by the MTT assay. **P<0.01 (Student's t-test). Error bars, mean±SD. (f) MDA-MB-468 cells were either in serum-free medium (SF) or stimulated with 100 ng/ml EGF (EGF) and then incubated with water (Vehicle), 20 μmol/l CP, 20 μmol/l EJ1, 2 μmol/l ionomycin, 50 μmol/l W-13, 100 μmol/l KN-93, or EJ1 in combination with ionomycin for 15 minutes. Lysates were immunoblotted with antibodies as indicated. (g) Stable, neomycin-selected NIH3T3 cell lines were created, expressing either Rac1 wild-type (Rac1-WT) or Rac1 constitutively active mutant (Rac1-Q61L). Cells were treated with water (Vehicle), 20 μmol/l CP, or 20 μmol/l EJ1, and the viability was assessed by MTT. ***P<0.001 (Student's t-test). Error bars, mean±SD.\n(§1) (a) MDA-MB-468 cells were incubated in serum-free media with 200 nmol/l MitoTracker Red CMXRos and 5 μg/ml Hoechst 33342 nuclear stain, followed by either 20 μmol/l CP (A-B′) or 20 μmol/l EJ1 (C-D′), and imaged at 0 minutes (A, A′; and C, C′) or at 5 minutes (B, B′; and D, D′). (b) MDA-MB-468 cells were incubated with 1 μmol/l JC-1, followed by 20 μmol/l CP, 20 μmol/l EJ1, or 50 μmol/l CCCP. Results were calculated as the ratio of the 514/590 nm to 514/529 nm fluorescences and the ratio for CP-treated sample was set as 1. *P<0.05, Student's t-test. Error bars, mean±SD. […] Cells were then sorted by flow cytometer and analyzed by Cellquest Pro 4.0 software. The results are expressed as the percentage of DCFH fluorescence-positive cells. *P<0.05, Student's t-test. […]"}, "MDA-MB-468 cells [2]": {"tested_on": "MDA-MB-468 cells", "experiment": "Intracellular ROS by flow cytometry, DCFH-DA", "type": "cell-based", "settings": "20 μmol/l EJ1, 0.5 mmol/l NAC", "procedure": "as §1, with “mean±SD. (c) T47D cells were treated with MitoTracker (shown in D-F and F′) and Hoechst 33342 as in (a) and incubated with 20 μmol/l FITC-labeled EJ1 (shown in A-C and C′).” for “mean±SD.”\nGeneration of intracellular ROS was evaluated by flow cytometry using the 2′,7′-dichlorofluorescein diacetate probe (Invitrogen). Fluorescent cells were analyzed by a FACScan flow cytometer (BD Biosciences) at the Flow Cytometry Shared Service in the Arizona Cancer Center, and the excitation/emission wavelengths were set at 488 and 525 nm, respectively."}},
  "data": [
    {"smiles": "CC(=O)N[C@@H](CS)C(=O)O", "note": "[NAC, N-acetyl cysteine]", "values": [
      {"measurement": "effect of co-treatment on EJ1-induced loss of cell viability (MTT)", "setting": "MDA-MB-468 cells [1]", "value": "significantly rescue EJ1-induced cell death"},
      {"measurement": "intracellular ROS levels (DCF fluorescence)", "setting": "MDA-MB-468 cells [2]", "value": "significantly reduced EJ1-induced ROS levels"}
    ]}
  ]
}
